Experimental data: the supplement of paper PMC10307832

How the values were obtained:
Assay in all cases: relative viability (nuclei count vs DMSO), 5 days (fraction); higher = more cells survive
[1] = compound: NCC(=O)Nc1ccc(-n2nc(C(F)(F)F)cc2-c2ccc3c(ccc4ccccc43)c2)cc1 + CS(=O)(=O)CCNCc1ccc(-c2ccc3ncnc(Nc4ccc(OCc5cccc(F)c5)c(Cl)c4)c3c2)o1 [Lapatinib] (partner 2 µM)
How it was run: (§1)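 Lung cancer cell lines, seeded in 1536-well plates, were treated the following day by pin tool with a single drug or with five library-drug doses (not always all listed) in √10 steps on top of a fixed anchor-drug dose. Cells were fixed and nuclei stained in one step after 5 days, and nuclei were counted. Relative viability is the nuclei count for treated wells divided by that for vehicle wells, reported as medians of duplicate plates.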

[2] = compound: NCC(=O)Nc1ccc(-n2nc(C(F)(F)F)cc2-c2ccc3c(ccc4ccccc43)c2)cc1 + Nc1nc2[nH]cc(CCc3ccc(C(=O)N[C@@H](CCC(=O)O)C(=O)O)cc3)c2c(=O)[nH]1 [Pemetrexed] (partner 0.2 µM)
How it was run: as §1

[3] = compound: NCC(=O)Nc1ccc(-n2nc(C(F)(F)F)cc2-c2ccc3c(ccc4ccccc43)c2)cc1 + COc1cccc2cc(-c3nc([C@H]4CC[C@H](C(=O)O)CC4)n4ncnc(N)c34)[nH]c12 [OSI-027] (partner 0.5 µM)
How it was run: as §1

[4] = compound: C1CSC2=C(C(=O)N1)SC3=C2C=C(C=C3)O [kb NB 142-70] + COc1cc2c(Oc3ccc(NC(=O)C4(C(=O)Nc5ccc(F)cc5)CC4)cc3F)ccnc2cc1OCCCN1CCOCC1 [Foretinib] (partner 0.25 µM)
How it was run: as §1

Cell Line	relative viability ([1]; first compound 0.02 µM)	relative viability ([1]; first compound 0.06325 µM)	relative viability ([1]; first compound 0.2 µM)	relative viability ([1]; first compound 0.6325 µM)	relative viability ([1]; first compound 2 µM)	relative viability ([2]; first compound 0.02 µM)	relative viability ([2]; first compound 0.06325 µM)	relative viability ([2]; first compound 0.2 µM)	relative viability ([2]; first compound 0.6325 µM)	relative viability ([2]; first compound 2 µM)	relative viability ([3]; first compound 0.02 µM)	relative viability ([3]; first compound 0.06325 µM)	relative viability ([3]; first compound 0.2 µM)	relative viability ([3]; first compound 0.6325 µM)	relative viability ([3]; first compound 2 µM)	relative viability ([4]; first compound 0.1 µM)	relative viability ([4]; first compound 1 µM)	relative viability ([4]; first compound 3.162 µM)
NCI-H460	0.965	0.956	0.991	0.845	0.576	0.0659	0.064	0.0588	0.0727	0.0577	0.583	0.642	0.696	0.587	0.675	0.951	1.07	0.985
NCI-H520	0.995	0.869	0.935	0.938	0.963	0.676	0.716	0.761	0.661	0.623	0.238	0.265	0.296	0.243	0.234	0.718	0.866	0.655
NCI-H596	1.13	1.09	1.11	1.09	1.19	0.521	0.455	0.548	0.494	0.441	0.731	0.865	0.83	0.727	0.799	0.887	0.866	0.89
NCI-H647	1.2	1.07	1.21	0.953	0.631	0.172	0.182	0.205	0.203	0.202	0.494	0.681	0.67	0.573	0.773	1.28	1.28	1.24
NCI-H650	0.665	1.06	0.934	0.87	1.25	0.907	0.9	0.896	0.872	0.913	0.508	0.524	0.541	0.443	0.524	1.02	1.06	0.851
NCI-H661	0.526	0.521	0.44	0.445	0.556	0.882	0.954	0.929	0.915	0.907	0.681	0.691	0.724	0.673	0.715	0.996	1.02	1.01
NCI-H838	0.934	0.893	0.974	0.778	0.576	0.259	0.25	0.253	0.232	0.284	0.406	0.461	0.428	0.425	0.469	1.02	1.06	1.04
NCI-H1355	1	1.05	1.08	0.951	1.05	1.06	1.09	1.07	0.963	1.02	0.35	0.427	0.315	0.45	0.511	0.946	1.06	0.975
NCI-H1395	1.15	1.02	0.928	1.08	1.04	0.876	0.896	0.969	0.8	0.894	0.709	0.688	0.693	0.642	0.686	0.942	1.04	0.946
NCI-H1437	0.768	0.76	0.751	0.84	0.78	0.309	0.335	0.35	0.316	0.308	0.889	0.898	0.877	0.881	0.951	1.28	1.3	1.22
NCI-H1563	0.841	0.998	0.758	0.945	0.909	0.801	0.81	0.702	0.722	0.737	0.785	0.786	0.761	0.771	0.719	0.95	0.986	0.935
NCI-H1650	0.812	0.797	0.472	0.801	0.929	0.399	0.423	0.331	0.485	0.38	0.7	0.806		0.73	0.634	1.44	1.23	1.18
NCI-H1651	0.715	0.758	0.782	0.909	0.85	0.588	0.34	0.577	0.603	0.608	0.655	0.929	0.628	0.584	0.803	0.802	0.683	0.618
NCI-H1666	0.59	0.61	0.588	0.744	0.604	0.947	0.881	0.87	0.851	0.878	0.932	0.836	0.945	0.845	0.861	0.993	1.02	0.814
NCI-H1734	1.05	1.01	1.15	1.03	0.853	0.406	0.457	0.442	0.442	0.384	0.561	0.601	0.577	0.594	0.552	0.873	0.738	0.456
NCI-H1755	1.01	1	1.07	1.02	1.06	0.69	0.509	0.453	0.394	0.434	0.711	0.68	0.685	0.71	0.759	0.928	0.867	0.944
NCI-H1793	0.659	0.684	0.743	0.886	0.84	0.907	1.01	0.827	0.949	0.891	0.26	0.263	0.321	0.276	0.251	0.603	0.742	0.813
NCI-H1915	0.922	0.939	0.942	0.95	0.996	0.452	0.503	0.477	0.575	0.467	0.463	0.652	0.639	0.617	0.63	1.1	1.12	0.82

Cell Line	relative viability ([1]; first compound 0.02 µM)	relative viability ([1]; first compound 0.06325 µM)	relative viability ([1]; first compound 0.2 µM)	relative viability ([1]; first compound 0.6325 µM)	relative viability ([1]; first compound 2 µM)	relative viability ([2]; first compound 0.02 µM)	relative viability ([2]; first compound 0.06325 µM)	relative viability ([2]; first compound 0.2 µM)	relative viability ([2]; first compound 0.6325 µM)	relative viability ([2]; first compound 2 µM)	relative viability ([3]; first compound 0.02 µM)	relative viability ([3]; first compound 0.06325 µM)	relative viability ([3]; first compound 0.2 µM)	relative viability ([3]; first compound 0.6325 µM)	relative viability ([3]; first compound 2 µM)	relative viability ([4]; first compound 0.1 µM)	relative viability ([4]; first compound 1 µM)	relative viability ([4]; first compound 3.162 µM)
NCI-H1944	0.813	0.888	0.752	0.801	0.876	0.609	0.731	0.642	0.553	0.575	0.37	0.442	0.427	0.423	0.47	0.883	0.934	0.998
NCI-H1975	0.816	0.915	0.854	0.91	0.969	0.309	0.293	0.291	0.282	0.278	0.676	0.811	0.772	0.834	0.752	0.92	0.928	0.566
NCI-H1993	0.754	0.707	0.859	0.909	0.901	0.579	0.504	0.59	0.628	0.599	0.545	0.493	0.541	0.483	0.542	0.739	0.762	0.744
NCI-H2009	0.872	0.948	0.868	0.935	0.958	1.03	1.01	1.08	1.05	1.04	0.573	0.613	0.703	0.604	0.609	1.2	1.22	0.872
NCI-H2023	0.747	1.2	0.476	0.838	0.74	0.226	0.249	0.256	0.224	0.239	0.381	0.422	0.428	0.422	0.351	0.859	0.89	0.663
NCI-H2085	0.718	0.78	0.742	0.813	0.818	0.831	0.967	0.92	0.892	1.01	0.688	0.908	0.654	0.691	0.802	0.964	1.06	0.513
NCI-H2087	1.02	0.988	1.02	1.11	1.15	0.619	0.685	0.681	0.639	0.718	0.543	0.612	0.546	0.483	0.626	1.25	1.32	0.968
NCI-H2126	0.792	0.763	0.787	0.793	0.751	0.667	0.714	0.736	0.724	0.69	0.773	0.753	0.726	0.741	0.631	1.18	0.869	1.14
NCI-H2170	0.278	0.285	0.277	0.286	0.288	0.251	0.262	0.239	0.265	0.269	0.67	0.678	0.711	0.824	0.735	0.996	1.07	0.953
NCI-H2228	1.1	1.21	1.14	0.935	0.804	0.375	0.354	0.377	0.358	0.398	0.672	0.535	0.904	0.644	0.584	0.956	0.939	0.543
NCI-H2347	0.883	0.939	0.955	1.03	0.884	0.403	0.421	0.409	0.432	0.496	0.465	0.484	0.606	0.503	0.685	0.744	1.21	0.72
NCI-H2405	1.05	1.12	1.13	1.02	1.13	1.04	1.04	1.26	1.04	1.16	0.634	0.646	0.699	0.642	0.689	1.05	1.05	0.776
NCI-H3122	1.08	1.05	1.01	0.988	0.934	0.194	0.208	0.204	0.187	0.241	1.04	0.941	0.899	0.98	0.876	0.956	0.926	0.942
PC-3 [JPC-3]	0.411	0.458	0.428	0.444	0.528	1.2	1.24	1.08	1.2	1.18	0.802	0.761	0.777	0.715	0.872	0.999	1.07	1.01
PC-14	0.381	0.277	0.305	0.305	0.37	0.131	0.136		0.131	0.113	0.769	0.949	0.937	0.82	0.726	0.936	0.919	1.07
RERF-LC-KJ	0.955	0.828	0.909	0.891	0.82	0.493	0.402	0.462	0.447	0.466	0.542	0.608	0.515	0.644	0.583	0.941	0.905	0.938
SK-LU-1	0.87	0.841	0.887	0.905	0.929	0.992	0.956	1.11	0.902	0.989	0.343	0.358	0.441	0.313	0.374	0.782	0.732	0.346
